Experiments:
[1] = test system: T. cruzi trypomastigotes (Y strain); assay: MTT reduction viability assay on isolated trypomastigotes; type: cell-based, Trypanosoma cruzi; details: for EC50: Trypanosoma cruzi, Y strain, 24 hours exposure, MTT assay, mean ± SD, read-out: EC50 T. cruzi trypomastigote; for Selectivity index (VERO/T. cruzi): ratio of EC50 VERO cells to EC50 T. cruzi trypomastigote
Protocol: Trypomastigotes (Y strain, DTU T. cruzi II) were obtained from infected VERO cells (Chlorocebus sabaeus kidney fibroblasts obtained from ATCC, ATCC number: CCL-81). The cells were exposed to trypomastigotes (Y strain) at a 3:1 density (trypomastigote:cell). The trypomastigotes were allowed to infect the cells for 24 h, and the supernatant was then extracted. The trypomastigotes were released from VERO cells at 4 days after infection. The parasites were harvested and collected for viability assays. The effect of the drugs on parasite viability was evaluated using the tetrazolium salt (MTT) reduction assay. […] Alternatively, VERO cells attached to the surface of 96-well plates were washed and incubated with MTT (5 mg/mL). After incubation for 4 h at 37°C, the generated formazan crystals were dissolved with 100 μL of 10% (w/v) sodium dodecyl sulfate (SDS) in 0.01 M HCl. The plates were then incubated overnight at 37°C, and the optical density (OD) was determined using a microplate reader (Labsystems Multiskan MS, Finland) at 570 nm. Under these conditions, the OD is directly proportional to the number of viable cells in each well [33, 34]. All of the experiments were performed at least three times. […] The data from each experiment were plotted using the formazan absorbance versus the log of the concentration, and the plot was fitted to the dose-response (four-parameters) equation using the software Graph Pad Prism V5.0, obtaining the EC50 value per drug and per experiment. The data are expressed as the mean ± DS of the EC50s obtained from each experiment.

mouse = test system: mouse; design: method as in PMID 24568614; details: 15 mg/kg; cited from earlier work
[2] = test system: T. cruzi in infected RAW 264.7 cells; assay: Parasite DNA load by real-time PCR in infected RAW cells; type: cell-based, Trypanosoma cruzi; details: for parasite's DNA load: 1 μM, qPCR, 48 hours; for parasite load (qPCR): infected RAW cells, 48 hours after treatment, Fig 4
Text: DNA from infected RAW cells (murine macrophages, ATCC number: TIB-71) was isolated using Wizard Genomic DNA Purification Kit (Promega, USA) following the manufacturer’s instructions. DNA was quantified through […] absorbance measurements using a Varioskan spectrophotometer (Thermo Scientific, USA). To evaluate the parasite DNA load, we used a TaqMan-Duplex system, as described previously. To amplify an 84-bp T. cruzi satellite DNA sequence, we used the following primers: TcSt 4-Fw (5’-[…]-3’) and TcSt 1-Rev (5’-[…]-3’) and the TcSt-1 probe (5’-FAM-[…]-BHQ-1-3’). As an endogenous control, we used the Mus-F (5’-[…]-3’) and Mus-R (5’-[…]-3’) primers coupled with the MM-1 probe (5’-HEX-AAAGCATCTGCCTCCG-BHQ-1-3’) to amplify a 67-bp Mus musculus GAPDH sequence. The primers and probes were designed using Primer Express 3.0 Software (Applied Biosystems, USA) and manufactured by Integrated DNA Technologies (Coralville, IA, USA). The PCR reactions were performed using an ABI7300 real-time thermocycler (Applied Biosystems, USA). […] ROX was used as a reference dye. For both TaqMan assays, the thermal cycle consisted of a polymerase activation step carried out at 95°C for 10 min (one cycle) and a two-step amplification phase: 95°C for 15 s and 55°C for 45 s (40 cycles). Fluorescence was measured at the end of each amplification cycle. The data were analyzed using 7300 System SDS software with the SDS relative quantitation plug-in (Applied Biosystems, USA). All of the data were analyzed by the 2^-∆∆CT method, comparing the CTs of the T. cruzi gene versus that of GAPDH as well as comparing all of the samples with the controls. The parasite load is expressed as the relative DNA load compared with the controls.

SMILES	EC50 [1] [nM]	Selectivity index (VERO/T. cruzi) [1]	safety in mouse models (mouse)	parasite's DNA load [2]	parasite load (qPCR) [2]
O=C(OCCCCCCCCCC[P+](c1ccccc1)(c1ccccc1)c1ccccc1)c1cc(O)c(O)c(O)c1.[Br-] [TPP^+-C10, triphenyl(10-((3,4,5-trihydroxybenzoyl)oxy)-decyl) phosphonium bromide]	1000 ± 600	11.3	safe	10 % of control measurements	reduced the parasite load in a concentration-dependent manner
O=C(OCCCCCCCCCCCC[P+](c1ccccc1)(c1ccccc1)c1ccccc1)c1cc(O)c(O)c(O)c1.[Br-] [TPP^+-C12, triphenyl(12-((3,4,5-trihydroxybenzoyl)oxy)-dodecyl) phosphonium bromide]	1000 ± 700	10.9	–	13 % of control measurements	reduced the parasite load in a concentration-dependent manner

From PMC4552745, “Novel Gallate Triphenylphosphonium Derivatives with Potent Antichagasic Activity” (PLoS ONE, 2015)
